For assay [1], the system named is cultured human mast cells (CHMC). The experiment in a line: CHMC low cell density IgE activation: tryptase assay. It counts as cell-based. Conditions: low cell density CHMC, IgE activation, tryptase release. A digest of the protocol:
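Fluorogenic readout of tryptase released into the supernatant (30 min substrate incubation, room temperature) measures degranulation. Cells were plated at low density (1000–1500/well, varied by donor) and triggered with anti-IgE for 30 min at 37 °C.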

For assay [2] the test system is unchanged. The assay can be described thus: CHMC low cell density ionomycin activation: tryptase assay. It is filed as cell-based. Conditions: low cell density CHMC, tryptase release, 3 point, read-out: LD Tryptase, CHMC, Iono, 3 pt.
The mark [3] stands for this setting: 3 point, read-out: LD Tryptase, CHMC, IgE, 3 pt.
The mark [4] stands for this setting: 8 point, read-out: LD Tryptase, CHMC, IgE, 8 pt.
Setting [5] is: Homo sapiens, Mast cell, 3 point, read-out: LD Tryptase, CHMC, IgE, 3 pt.
Setting [6] is: Homo sapiens, Mast cell, 8 point, read-out: LD Tryptase, CHMC, IgE, 8 pt.

Regarding `COC(=O)COc1ccc(Nc2nc(Nc3ccc4[nH]ccc4c3)ncc2F)cc1Cl` [Compound 618, N4-[3-Chloro-4-(methoxycarbonyl)methyleneoxyphenyl]-5-fluoro-N2-(indol-5-yl)-2,4-pyrimidinediamine], the figures for the IC50 in assay [1] (setting [3]), in assay [1] (setting [4]) and in assay [2] were < 10 µM, < 10 µM and > 10 µM, respectively.
As for `Cc1cc(C)cc(Nc2ncc(F)c(Nc3ccc(OCCO)c(Cl)c3)n2)c1` [Compound 619, N4-[3-Chloro-4-(2-hydroxyethyleneoxy)phenyl]-N2-(3,5-dimethylphenyl)-5-fluoro-2,4-pyrimidinediamine], the IC50 in assay [1] (setting [3]), in assay [1] (setting [4]) and in assay [2] was < 10 µM throughout.
For `COc1cc(Nc2ncc(F)c(Nc3ccc(OCCO)c(Cl)c3)n2)cc(OC)c1` [Compound 620, N4-[3-Chloro-4-(2-hydroxyethyleneoxy)phenyl]-N2-(3,5-dimethoxyphenyl)-5-fluoro-2,4-pyrimidinediamine], the IC50 in assay [1] (setting [3]), in assay [1] (setting [4]) and in assay [2] was < 10 µM throughout.
On to `COc1ccc(Nc2ncc(F)c(Nc3ccc(OCCO)c(Cl)c3)n2)cc1Cl` [Compound 621, N4-[3-Chloro-4-(2-hydroxyethyleneoxy)phenyl]-N2-(3-chloro-4-methoxyphenyl)-5-fluoro-2,4-pyrimidinediamine], for which the IC50 in assay [1] (setting [3]) is < 10 µM; in assay [1] (setting [4]), < 10 µM; in assay [2], > 10 µM.
On to `Cc1cc(Nc2ncc(F)c(Nc3ccc(OCCO)c(Cl)c3)n2)cc(C)c1Cl` [Compound 622, N2-(4-Chloro-3,5-dimethylphenyl)-N4-[3-chloro-4-(2-hydroxyethyleneoxy)phenyl]-5-fluoro-2,4-pyrimidinediamine], for which the values for the IC50 in assay [1] (setting [3]), in assay [1] (setting [4]) and in assay [2] were < 10 µM, < 10 µM and > 10 µM, respectively.
Consider `OCCOc1ccc(Nc2nc(Nc3ccc4[nH]ccc4c3)ncc2F)cc1Cl` [Compound 623, N4-[3-Chloro-4-(2-hydroxyethyleneoxy)phenyl]-5-fluoro-N2-(indol-5-yl)-2,4-pyrimidinediamine], for which the IC50 in assay [1] (setting [3]), in assay [1] (setting [4]) and in assay [2] was < 10 µM each time.
Consider `COc1cc(Nc2ncc(F)c(Nc3ccc(OCCO)c(Cl)c3)n2)ccc1Cl` [Compound 624, N4-[3-Chloro-4-(2-hydroxyethyleneoxy)phenyl]-N2-(4-chloro-3-methoxyphenyl)-5-fluoro-2,4-pyrimidinediamine], for which the IC50 was < 10 µM in assay [1] (setting [3]), < 10 µM in assay [1] (setting [4]) and > 10 µM in assay [2].
Consider `CNC(=O)COc1ccc(Nc2nc(Nc3ccc4[nH]ccc4c3)ncc2F)cc1Cl` [Compound 625, N4-[3-Chloro-4-(N-methylamino)carbonylmethyleneoxyphenyl]-5-fluoro-N2-(indol-5-yl)-2,4-pyrimidinediamine], for which the IC50 in assay [1] (setting [3]), in assay [1] (setting [4]) and in assay [2] was < 10 µM throughout.
Consider `Cc1cc(N(C)c2nc(Cl)ncc2F)cc(C)c1Cl` [Compound 626], for which the IC50 in assay [1] (setting [5]) is > 10 µM; in assay [2] (Homo sapiens, Mast cell), < 10 µM.
With `CN(c1ccc2c(c1)OC(F)(F)C(F)(F)O2)c1nc(Cl)ncc1F` [Compound 627], the IC50 in assay [1] (setting [3]) and in assay [2] was > 10 µM in each case.
Consider `CN(c1ccc2c(c1)OC(F)(F)O2)c1nc(Cl)ncc1F` [Compound 628], for which the IC50 in assay [1] (setting [3]) and in assay [2] was > 10 µM each time.
Turning to `Fc1cnc(Nc2ccc3cc[nH]c3c2)nc1Nc1ccc(Cl)c(C(F)(F)F)c1` [Compound 629, N4-(4-Chloro-3-trifluoromethylphenyl)-5-fluoro-N2-(indol-6-yl)-2,4-pyrimidinediamine], the IC50 in assay [1] (setting [5]) was < 10 µM; in assay [1] (setting [6]) it was < 10 µM; in assay [2] (Homo sapiens, Mast cell) it was > 10 µM.
Consider `COc1cc(Nc2nc(Nc3ccc4cc[nH]c4c3)ncc2F)ccc1Cl` [Compound 630, N4-(4-Chloro-3-methoxyphenyl)-5-fluoro-N2-(indol-6-yl)-2,4-pyrimidinediamine], for which the IC50 in assay [1] (setting [5]) is < 10 µM; in assay [1] (setting [6]), < 10 µM; in assay [2] (Homo sapiens, Mast cell) it was > 10 µM.
Take `COC(=O)COc1ccc(Nc2nc(Nc3ccc4cc[nH]c4c3)ncc2F)cc1Cl` [Compound 631, N4-(3-Chloro-4-methoxycarbonylmethyleneoxyphenyl)-5-fluoro-N2-(indol-6-yl)-2,4-pyrimidinediamine]: the IC50 in assay [1] (setting [3]), in assay [1] (setting [4]) and in assay [2] was < 10 µM each time.
As for `OCCOc1ccc(Nc2nc(Nc3ccc4cc[nH]c4c3)ncc2F)cc1Cl` [Compound 632, N4-[3-Chloro-4-(2-hydroxyethyleneoxy)phenyl]-5-fluoro-N2-(indol-6-yl)-2,4-pyrimidinediamine], the IC50 was < 10 µM in assay [1] (setting [3]), < 10 µM in assay [1] (setting [4]) and > 10 µM in assay [2].
As for `Fc1cnc(Nc2cccc(-c3ncco3)c2)nc1Nc1ccc2c(c1)OC(F)(F)C(F)(F)O2` [Compound 633], the values for the IC50 in assay [1] (setting [3]) and in assay [2] were < 10 µM and > 10 µM, respectively.
On to `CN(c1ccc2c(c1)OC(F)(F)C(F)(F)O2)c1nc(Nc2cccc(-c3ncco3)c2)ncc1F` [Compound 634], for which the IC50 is > 10 µM in assay [1] (setting [3]), < 10 µM in assay [1] (setting [4]) and > 10 µM in assay [2].
Turning to `CNC(=O)COc1c(C)cc(Nc2ncc(F)c(N(C)c3ccc4c(c3)OCCO4)n2)cc1C` [Compound 635, N2-[3,5-Dimethyl-4-(N-methylamino)carbonylmethyleneoxyphenyl]-N4-(3,4-ethylenedioxyphenyl)-5-fluoro-N4-methyl-2,4-pyrimidinediamine], the IC50 in assay [1] (setting [3]), in assay [1] (setting [4]) and in assay [2] was < 10 µM in each case.
`CNC(=O)COc1c(C)cc(Nc2ncc(F)c(N(C)c3ccc4c(c3)OC(F)(F)C(F)(F)O4)n2)cc1C` [Compound 636, N2-[3,5-Dimethyl-4-(N-methylamino)carbonylmethyleneoxyphenyl]-5-fluoro-N4-methyl-N4-[3,4-(tetrafluoroethylenedioxy)phenyl]-2,4-pyrimidinediamine]: the IC50 in assay [1] (setting [3]), in assay [1] (setting [4]) and in assay [2] was < 10 µM each time.
As for `CNC(=O)COc1c(C)cc(Nc2ncc(F)c(Nc3ccc4c(c3)OC(F)(F)C(F)(F)O4)n2)cc1C` [Compound 637, N2-[3,5-Dimethyl-4-(N-methylamino)carbonylmethyleneoxyphenyl]-5-fluoro-N4-[3,4-(tetrafluoroethylenedioxy)phenyl]-2,4-pyrimidinediamine], the IC50 was < 10 µM in assay [1] (setting [3]) and > 10 µM in assay [2].
For the compound `CNC(=O)COc1c(C)cc(Nc2ncc(F)c(N(C)c3cc(OC)cc(OC)c3)n2)cc1C` [Compound 638, N2-[3,5-Dimethyl-4-(N-methylamino)carbonylmethyleneoxyphenyl]-N4-(3,5-dimethoxyphenyl)-5-fluoro-N4-methyl-2,4-pyrimidinediamine], the IC50 in assay [1] (setting [3]), in assay [1] (setting [4]) and in assay [2] was < 10 µM throughout.
Regarding `COC(=O)Cn1ccc2ccc(Nc3ncc(F)c(Nc4ccc5c(c4)NC(=O)C(C)(C)O5)n3)cc21` [Compound 639, N4-(2,2-Dimethyl-3-oxo-4H-benz[1,4]oxazin-6-yl)-5-fluoro-N2-[1-(methoxycarbonylmethylene)indol-6-yl]-2,4-pyrimidinediamine], the results for the IC50 in assay [1] (setting [3]), in assay [1] (setting [4]) and in assay [2] were < 10 µM, < 10 µM and > 10 µM, respectively.
With `CNC(=O)COc1ccc(Nc2nc(Nc3ccc4ccn(CC(=O)OC)c4c3)ncc2F)cc1Cl` [Compound 640, N4-[3-Chloro-4-(N-methylamino)carbonylmethyleneoxyphenyl]-5-fluoro-N2-[1-(methoxycarbonylmethylene)indol-6-yl]-2,4-pyrimidinediamine], the values for the IC50 in assay [1] (setting [3]), in assay [1] (setting [4]) and in assay [2] were < 10 µM, < 10 µM and > 10 µM, respectively.
In the case of `COC(=O)Cn1ccc2ccc(Nc3ncc(F)c(Nc4ccc(Cl)c(OC)c4)n3)cc21` [Compound 641, N4-(4-Chloro-3-methoxyphenyl)-5-fluoro-N2-[1-(methoxycarbonylmethylene)indol-6-yl]-2,4-pyrimidinediamine], the IC50 in assay [1] (setting [3]), in assay [1] (setting [4]) and in assay [2] was < 10 µM in each case.
Turning to `COC(=O)Cn1ccc2ccc(Nc3ncc(F)c(Nc4ccc5c(c4)OCCO5)n3)cc21` [Compound 642, N4-(3,4-Ethylenedioxyphenyl)-5-fluoro-N2-[1-(methoxycarbonylmethylene)indol-6-yl]-2,4-pyrimidinediamine], the IC50 in assay [1] (setting [3]) is < 10 µM; in assay [1] (setting [4]), < 10 µM; in assay [2], > 10 µM.
As to `COC(=O)Cn1ccc2cc(Nc3ncc(F)c(Nc4ccc5c(c4)NC(=O)C(C)(C)O5)n3)ccc21` [Compound 643, N4-(2,2-Dimethyl-3-oxo-4H-benz[1,4]oxazin-6-yl)-5-fluoro-N2-[1-(methoxycarbonylmethylene)indol-5-yl]-2,4-pyrimidinediamine], the results for the IC50 in assay [1] (setting [3]), in assay [1] (setting [4]) and in assay [2] were < 10 µM, < 10 µM and > 10 µM, respectively.
As to `CNC(=O)COc1ccc(Nc2nc(Nc3ccc4c(ccn4CC(=O)OC)c3)ncc2F)cc1Cl` [Compound 644, N4-[3-Chloro-4-(N-methylamino)carbonylmethyleneoxyphenyl]-5-fluoro-N2-[1-(methoxycarbonylmethylene)indol-5-yl]-2,4-pyrimidinediamine], the IC50 was < 10 µM in assay [1] (setting [3]), < 10 µM in assay [1] (setting [4]) and > 10 µM in assay [2].
